Experimental data: ChEMBL document CHEMBL1128933, “Structural comparison of alkylpolyamine analogues with potent in vitro antitumor or antiparasitic activity” (Bioorg Med Chem Lett, 1996)

Experiments:
Trypanosoma brucei [1] = assay: Compound was evaluated for growth brucei LAB 110 strain.; format: functional, organism-based
NCH82 = assay: Compound was evaluated for inhibitory activity against H82 small cell lung carcinoma.; format: functional, cell-based; details: Homo sapiens
Trypanosoma brucei [2] = assay: Compound was evaluated for growth brucei K269 strain.; format: functional, organism-based
Trypanosoma brucei [3] = assay: Compound was evaluated for growth brucei K243 As-10-3 strain.; format: functional, organism-based
Trypanosoma brucei [4] = assay: Compound was evaluated for growth brucei K243 strain.; format: functional, organism-based
NCI-H157 = assay: Compound was evaluated for inhibitory activity against H157 non-small cell lung carcinoma.; format: functional, cell-based; details: Homo sapiens

C#CCNCCCNCCCNCCCNCC
IC50 (Trypanosoma brucei [1]): > 100 µM | IC50 (NCH82): 5.2 µM | IC50 (Trypanosoma brucei [2]): > 100 µM | IC50 (Trypanosoma brucei [3]): > 100 µM | IC50 (Trypanosoma brucei [4]): > 100 µM | IC50 (NCI-H157): 0.7 µM

CCNCCCNCCCNCCCNCC1CCCCCC1
IC50 (Trypanosoma brucei [1]): > 100 µM | IC50 (NCH82): 1.7 µM | IC50 (Trypanosoma brucei [2]): > 100 µM | IC50 (Trypanosoma brucei [3]): > 100 µM | IC50 (Trypanosoma brucei [4]): > 100 µM | IC50 (NCI-H157): 0.5 µM

C(CCCNCCCNCC1CCCCCC1)CCCNCCCNCC1CCCCCC1
IC50 (Trypanosoma brucei [1]): 0.125 µM | IC50 (NCH82): 1.5 µM | IC50 (Trypanosoma brucei [2]): 0.69 µM | IC50 (Trypanosoma brucei [3]): 0.78 µM | IC50 (Trypanosoma brucei [4]): 0.98 µM | IC50 (NCI-H157): 2.1 µM

CCNCCCNCCCCCCCNCCCNCC1CCCCCC1
IC50 (Trypanosoma brucei [1]): 18 µM | IC50 (NCH82): 9 µM | IC50 (Trypanosoma brucei [2]): 21 µM | IC50 (Trypanosoma brucei [3]): 26.2 µM | IC50 (Trypanosoma brucei [4]): 18.4 µM | IC50 (NCI-H157): > 10 µM

c1ccc(CNCCCNCCCCCCCNCCCNCc2ccccc2)cc1
IC50 (Trypanosoma brucei [1]): 14.5 µM | IC50 (Trypanosoma brucei [2]): 12.3 µM | IC50 (Trypanosoma brucei [3]): 13 µM | IC50 (Trypanosoma brucei [4]): 15.1 µM

CCNCCCNCCCNCCCNCC1CC1
IC50 (Trypanosoma brucei [1]): > 100 µM | IC50 (NCH82): 0.7 µM | IC50 (Trypanosoma brucei [2]): > 100 µM | IC50 (Trypanosoma brucei [3]): > 100 µM | IC50 (Trypanosoma brucei [4]): > 100 µM | IC50 (NCI-H157): 0.4 µM

CCNCCCNCCCCNCCCNCC [BIS(ETHYL)SPERMINE]
IC50 (NCI-H157): 2.9 µM
